Consider one compound from patent US20090214669A1, “Combination anticancer therapy and pharmaceutical compositions therefore” (priority 2004, published 2009).

A short description of series [1]: Pharmacokinetic data of OM-174 in man. As to conditions: human, in vivo, median and range; for Vd: read-out: Vss.
In series [2] the test system is EMT-6 cells. Put plainly: Indirect radiosensitisation via OM-174-induced conditioned medium. Conditions: 3 μg/ml versus 0.3 μg/ml; conditioned medium from Whistar rats. In kind it is cell-based, mouse.
The test system of another series is PROb cells. Put plainly: PROb i.p. rat colon cancer model, 5-FU combined with OM-174: carcinomatosis classes, ascites, survival. In kind it is in vivo. As to conditions: day 61. As to the method:
On day 0 (D0), 106 PROb cells were injected i.p. to each rat. 5-FU was administered i.p. at the dose of 30 mg/kg on days 7 and 14. OM-174 was injected at the dose of 1 mg/kg i.v. from day 21 three times a week for a total of 10 injections.
All rats (controls and treated) were sacrificed by CO2 on day 61. The efficacy of the treatment was determined by read-outs such as survival (FIG. 5) and measure of the classes of cancer given depending on the number and the size of the nodules, and also by ascites measurements. Carcinomatoses were evaluated blindly. As it is impossible to measure the volume of a carcinomatosis, they were classified according to the number and diameter of the nodules: • Class 0: no visible nodule • Class 1: some countable nodules with a diameter from 0.1 to 0.3 cm • Class 2: many uncountable nodules with a diameter from 0.1 to 0.3 cm • Class 3: some nodules with a diameter of 1 cm invade the peritoneal cavity • Class 4: the cavity is completely invaded by tumor masses of several cm.
The ascite volume was measured by double weights of the rats.

The test system of series [3] is EMT-6 cells. Put plainly: Direct radiosensitisation of EMT-6 cells, 8-day colony formation assay. In kind it is cell-based, mouse. As to the method: Murine mammary adenocarcinoma EMT-6 cells were cultured in RPMI medium+10% bovine calf serum in plastic flasks. EMT-6 monolayer cultures grown to early confluence were exposed to OM-174 for 16 hours in both conditions (21% and 1% oxygen). After treatment with OM-174, nitrite determination using the classical Griess method was performed. Values were normalized for 200'000 cells per well.
Cells were then collected by trypsinization and the radioresponse was estimated as described previously (Van der Berge et al., 2001) Briefly, micropellets (0.5×10^6 cells) were produced in conical tubes by centrifugation at 300 g for 5 min. Metabolic oxygen depletion in micropellets was induced by incubation at 37° C. for 3 minutes prior to radiation. Micropellets were irradiated with a linear accelerator at a rate of 2 Gy per min and the survival fraction (SF) after 5, 10, 15, and 20 Gy was measured by a 8-day colony formation assay.

Like-named read-outs stand apart in the source and are kept apart here.

On to `CCCCCCCCCCCC(=O)O[C@H](CCCCCCCCCCC)CC(=O)N[C@@H]1C(O)[C@H](OP(=O)(O)O)C(CO)O[C@H]1OCC1O[C@H](OP(=O)(O)O)C(NC(=O)C[C@H](O)CCCCCCCCCCC)C(O)[C@@H]1O` (stereo partly shown) [OM-174], for which, in series [1] (intravenous, Cancer patients), the clearance (usually the rate of elimination divided by the concentration) was 1.7 mL/min; the half-life (in general, the time needed for the level to fall by half in the phase considered) came to 20 h; the Vd stood at 2.9 L. Further, in series [1] (Healthy volunteers), the clearance is 2.82 mL/min, the half-life was 23 h and the Vd amounted to 5.1 L. In addition, the “Indirect radiosensibilizing effect via conditioned medium (in words, FIG. 8)” value in the series with EMT-6 cells [2] is recorded as “clearly more radiosensibilizing”. Further, the “Number of rats in carcinomatosis class 0” value with PROb cells (Class 0: no visible nodule, 5-FU 30 mg/kg i.p. days 7 and 14, OM-174 1 mg/kg i.v. from day 21, 10 injections) is 2. In addition, the “Number of rats in carcinomatosis class 1” value in the series with PROb cells (Class 1: some countable nodules with a diameter from 0.1 to 0.3 cm) is on record as 3. Also, the “Number of rats in carcinomatosis class 2” value in the series on PROb cells (Class 2: many uncountable nodules with a diameter from 0.1 to 0.3 cm) is 2. In addition, the “Number of rats in carcinomatosis class 3” value with PROb cells (Class 3: some nodules with a diameter of 1 cm invade the peritoneal cavity) is recorded as 2. In addition, the “Number of rats in carcinomatosis class 4” value with PROb cells (Class 4: the cavity is completely invaded by tumor masses of several cm) is on record as 1. In addition, in the series on PROb cells, the “Carcinomatosis classes versus Control group (Mann-Whitney test)” value was “significant difference”. In the series on PROb cells (measured by double weights of the rats), the Ascites was found to be 1 mL. In the series with EMT-6 cells [3] (21% versus 1% oxygen), the “Direct radiosensibilizing effect (in words, FIG. 7)” value is recorded as “directly radiosensibilizing agent for cancer cells only in hypoxic conditions”. Also, the “Lowering of the radiation dose necessary to kill 90% of the cells versus absence of OM-174” value in the series on EMT-6 cells [3] (hypoxic conditions, at either 3 or 30 mg/ml (FIG. 7)) amounted to 1.67.
